Measured values: article PMC3411647 (PLoS ONE, 2012)

What was measured:
[1] = molecular target: histamine H4 receptor; conditions: cited from earlier work
[2] = molecular target: T1, rat brain H3R (Rattus norvegicus, UniProt Q9QYN8); assay: Competitive/saturation binding with [3H]N-α-methylhistamine, rat cerebral cortex membranes; conditions: saturation binding, rat cerebral cortex
T1 construct: from tissue; host or cells: rat cerebral cortex membranes
Experimental: (§1) Figure 4 Competition binding experiments with [^3H]-N-α-methylhistamine. […] The presented data are the means ±SE of values from a single experiment performed in duplicate and are representative of three to six separate experiments.
(§2) The membranes (50 µg of protein) were incubated with [^3H] N-α-methylhistamine at various concentrations (from 0.03 nM to 50 nM) for saturation binding assays. For competitive binding assays, the membranes (50 µg of protein) were incubated with 10 nM [^3H] N-α-methylhistamine for recombinant hH3R or 2nM [^3H] N-α-methylhistamine for rat brain H3R in the presence of various compound concentrations in the buffer (50 mM Tris–HCl, pH 7.4). […] Following three washes, the membrane-bound radioactivity was measured on a Topcount (PerkinElmer) at 20°C. […] IC50 values were converted to Ki values using the Cheng-Prusoff equation. Each experiment was performed in duplicate and repeated three to six times. All data were analyzed by nonline arregression using GraphPad Prism version 4.0 software.

[3] = molecular target: T2, hH3R (Homo sapiens, UniProt Q9Y5N1); assay: Saturation radioligand binding (Scatchard) of [3H]N-α-methylhistamine (0.03-50 nM) to membranes of HEK-293 cells expressing hH3R, 50 mM Tris-HCl pH 7.4, room temperature.
T2 construct: gene HRH3; recombinant, cDNA from human thalamus RNA (AF140538), stably expressed in HEK-293 cells; vectors pCMV-Flag and pEGFP-N1
T2 sequence (Q9Y5N1 whole entry): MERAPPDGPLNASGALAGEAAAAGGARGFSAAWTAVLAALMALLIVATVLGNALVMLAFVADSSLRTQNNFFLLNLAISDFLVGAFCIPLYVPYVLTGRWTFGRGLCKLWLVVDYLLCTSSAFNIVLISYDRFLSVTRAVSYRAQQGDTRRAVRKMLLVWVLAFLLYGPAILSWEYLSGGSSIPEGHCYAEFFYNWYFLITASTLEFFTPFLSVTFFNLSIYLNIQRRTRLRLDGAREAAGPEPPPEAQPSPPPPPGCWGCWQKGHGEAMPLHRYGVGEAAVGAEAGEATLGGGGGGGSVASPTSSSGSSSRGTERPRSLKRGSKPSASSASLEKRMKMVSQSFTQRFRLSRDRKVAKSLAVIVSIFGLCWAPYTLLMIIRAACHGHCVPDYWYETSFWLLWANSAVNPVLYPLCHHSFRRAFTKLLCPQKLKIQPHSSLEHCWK
Experimental: (§3) HEK-293 cells stably expressing H3R were harvested and resuspended in ice-cold 50 mM Tris-HCl (pH 7.4) containing a complete protease inhibitor cocktail tablet and mixed by inverting. The cell pellet was homogenized with a Polytron PT 1200 set at 4000 rpm and centrifuged at 1,000 g for 5 min. The supernatant was then centrifuged twice at 50,000 g for 30 min at 4°C. Finally, the resulting pellet was gently suspended in 50 mM Tris-HCl (pH 7.4) buffer and the membrane concentration was determined using Bio-Rad protein assays.
The membranes (50 µg of protein) were incubated with [^3H] N-α-methylhistamine at various concentrations (from 0.03 nM to 50 nM) for saturation binding assays. For competitive binding assays, the membranes (50 µg of protein) were incubated with 10 nM [^3H] N-α-methylhistamine for recombinant hH3R or 2nM [^3H] N-α-methylhistamine for rat brain H3R in the presence of various compound concentrations in the buffer (50 mM Tris–HCl, pH 7.4). The reaction mixtures were incubated for 90–120 min at room temperature to achieve binding equilibrium. Following three washes, the membrane-bound radioactivity was measured on a Topcount (PerkinElmer) at 20°C. […] IC50 values were converted to Ki values using the Cheng-Prusoff equation. […] All data were analyzed by nonline arregression using GraphPad Prism version 4.0 software.

[4] = molecular target: T3, human histamine H3 receptor (Homo sapiens, UniProt Q9Y5N1); assay: Competitive/saturation binding with [3H]N-α-methylhistamine, H3R/HEK-293 cell membranes
T3 construct: expressed in transfected cells
T3 sequence (Q9Y5N1 whole entry): as above
Experimental: as §1, §3, §2

[5] = molecular target: T4, H3R (Homo sapiens, UniProt Q9Y5N1); assay: H3R internalization, cell-surface ELISA in HEK-293 cells stably transfected with Flag-H3R; assay type: cell-based; conditions: 100 µM, 45 min at 37°C
T4 construct: expressed in transfected cells
T4 sequence (Q9Y5N1 whole entry): as above
Experimental: ELISA data are expressed as the percentage of receptors detected on the surface of agonist-untreated cells expressing H3R. Error bars represent the SEM for four replicates.
The cell surface expression of H3R was quantitatively assessed by ELISA and performed as described previously. Briefly, HEK-293 cells stably transfected with the pCMV-H3R construct were seeded in 48-well dishes coated with poly-L-lysine. […] Medium was aspirated and the cells were washed once with Tris-buffered saline (TBS). […] Cells were then incubated for 1 h with an alkaline phosphatase-conjugated monoclonal antibody directed against the Flag epitope and diluted 1∶1,000. Cells were washed 3 times, and antibody binding was visualized by adding 0.25 mL of an alkaline phosphatase substrate (Bio-Rad). Development was stopped by adding 0.1 mL of the substrate to a 96-well microtiter plate containing 0.1 mL of 0.4 M NaOH.

[6] = molecular target: T4, H3R; assay: ERK1/2 phosphorylation (Western blot) in HEK-293 cells stably expressing H3R; assay type: cell-based
Experimental: Figure 7 Phosphorylation of ERK1/2 induced by ZEL-H16 in H3R-expressing HEK-293 cells. […] Signals were quantified by densitometric image analysis and p-ERK was normalized to a loading control (ERK). […] Concentration -dependent phosphorylation signals were quantified by densitometric analysis and p-ERK levels were normalized to total ERK levels. […] C, The phosphorylation of ERK1/2 induced by ZEL-H16 could be entirely abolished by co-incubation with H3R antagonist thioperamide (***p<0.001). Data represent the mean ±SE of three independent experiments.
HEK-293 cells stably expressing human H3R were grown in a 6-well plate and were serum starved 2 h in serum-free culture medium prior to stimulation. Cells were stimulated with the indicated H3R ligands at the designated concentrations. Incubations were stopped at the indicated times by removing the stimulation medium by aspiration. The cells were washed in ice-cold PBS and subsequently lysed in 100 µl of lysis buffer [20 mM HEPES (pH 7.5), 10 mM EDTA, 150 mM NaCl, 1% Triton X-100, and one tablet of complete protease inhibitor (Roche, Indianapolis, IN) per 50 mL] at 4°C on a rocker for 30 min. The lysates were centrifuged and separated by sodium dodecyl sulfate-polyacrylamide (12%) gel electrophoresis (SDS-PAGE) and blotted onto polyvinylidene difluoride membranes. Membranes were blocked for 1 h at room temperature in TBST (10 mmol/L Tris, 150 mmol/L NaCl, 0.1% Tween-20, pH 8.0) buffer containing 5% (v/w) skim milk. Membranes were probed overnight with primary antibodies against p-ERK1/2 (1∶1,000; Cell Signaling, Danvers, MA) in TBST containing 5% (v/w) BSA, and then probed with horseradish peroxidase-labeled secondary antibody (1∶5,000) for 1 h at room temperature in TBST containing 5% (v/w) milk powder. Immunoreactivity was detected by ECL assays. The blots were stripped and reprobed using antibodies against total ERK1/2 (1∶2,000) (Cell Signaling, Danvers, MA) as a control.

[7] = molecular target: T5, mouse H3R (Mus musculus, UniProt P58406); assay: ERK1/2 phosphorylation in neonatal mouse cortical neuron cultures; assay type: cell-based
T5 construct: endogenous in cells; host or cells: primary cortical neurons of neonatal ICR mice
T5 sequence (P58406 whole entry): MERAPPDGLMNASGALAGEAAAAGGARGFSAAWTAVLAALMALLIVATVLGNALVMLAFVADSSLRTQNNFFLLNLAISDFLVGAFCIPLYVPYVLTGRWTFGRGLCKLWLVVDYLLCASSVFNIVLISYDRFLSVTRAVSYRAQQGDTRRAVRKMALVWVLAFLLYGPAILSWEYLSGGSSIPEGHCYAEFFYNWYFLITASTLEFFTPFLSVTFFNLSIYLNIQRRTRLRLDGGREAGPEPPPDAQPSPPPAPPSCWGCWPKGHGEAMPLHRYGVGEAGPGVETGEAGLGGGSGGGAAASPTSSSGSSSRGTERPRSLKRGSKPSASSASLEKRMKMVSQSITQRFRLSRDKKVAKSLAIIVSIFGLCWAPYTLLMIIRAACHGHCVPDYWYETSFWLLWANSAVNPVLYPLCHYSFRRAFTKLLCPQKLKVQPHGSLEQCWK
Experimental: Figure 8 Phosphorylation of ERK1/2 induced by ZEL-H16 in mouse cortical neurons. A, Time-dependent phosphorylation of ERK1/2 induced by 5 µM ZEL-H16 in neonatal mouse cortical neuron cultures. B, The phosphorylation of ERK1/2 induced by 50 µM ZEL-H16 for 20 min was mostly abolished by 100 ng/mL PTX or 10 µM thioperamide. Signals were quantified by densitometric image analysis and p-ERK was normalized to a loading control (ERK). The signal at each point is expressed as the percentage of the maximal p-ERK signal induced by ZEL-H16. Data represent the mean ±SE of three independent experiments.
Neuronal cortical cultures were prepared from neonatal ICR mice. Cerebral cortices were dissociated in sterile Dulbecco’s phosphate-buffered saline (D-PBS; Sigma-Aldrich, St. Louis, MO), and the neurons were isolated in the same medium containing 0.5% trypsin at 37°C for 10 min. After centrifugation, dissociated neurons were re-suspended in neurobasal medium (NBM; Gibco, Carlsbad, CA) supplemented with 2% B-27 and 0.5 mmol/L-glutamine (Gibco, Carlsbad, CA) and then plated on 48-well plates at a density of approximately 1.3×10^6 per well. After 7 days of culture, the neurons were serum starved for approximately 3 h prior to drug treatment. […]

[8] = molecular target: T6, H3R-EGFP (Homo sapiens, UniProt Q9Y5N1); assay: Recycling of internalized H3R-EGFP to the cell surface, confocal microscopy; assay type: cell-based; conditions: 20 µM ZEL-H16 or 500 µM histamine for 30 min, cycloheximide 100 µg/ml
T6 construct: expressed in transfected cells
T6 sequence (Q9Y5N1 whole entry): as the sequence (Q9Y5N1 whole entry) above
Experimental: Figure 6 Localization of internalized H3R-EGFP stably expressed in HEK-293 cells and recycling of internalized H3R to the cell surface. […] All pictures shown are representative of at least three independent experiments.
HEK-293 cells stably expressing H3R-EGFP were seeded in covered glass-bottom 6-well plates. […] After fixing the cells with 4% paraformaldehyde for 10 min, cells were mounted in mounting reagent (DTT/PBS/glycerol). Confocal images were taken on a Zeiss LSM 510 microscope with an attached Axiovert 200 microscope and LSM5 computer system. Images were collected using QED camera software and processed with Adobe Photoshop.

[9] = molecular target: T7, H3R (Cavia porcellus, UniProt Q9JI35); assay: Guinea-pig ileum bioassay, inhibition of electrically induced twitch
T7 construct: from tissue; host or cells: guinea-pig ileum segments
T7 sequence (Q9JI35 whole entry): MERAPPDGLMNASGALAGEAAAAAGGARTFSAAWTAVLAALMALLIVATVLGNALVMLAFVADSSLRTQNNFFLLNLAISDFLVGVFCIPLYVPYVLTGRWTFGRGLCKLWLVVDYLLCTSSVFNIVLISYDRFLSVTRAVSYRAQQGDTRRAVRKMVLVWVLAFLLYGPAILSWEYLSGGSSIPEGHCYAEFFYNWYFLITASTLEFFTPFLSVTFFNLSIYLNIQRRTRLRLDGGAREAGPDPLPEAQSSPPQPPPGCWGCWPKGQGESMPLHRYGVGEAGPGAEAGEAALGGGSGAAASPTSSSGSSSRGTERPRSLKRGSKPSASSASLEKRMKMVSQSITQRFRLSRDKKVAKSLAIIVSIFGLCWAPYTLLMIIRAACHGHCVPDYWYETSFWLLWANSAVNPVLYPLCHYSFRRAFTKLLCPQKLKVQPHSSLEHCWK
Experimental: Each point is the mean ± s.e.m. of three to six separate experiments.
The procedure used was as described previously. Adult male guinea pigs (300–500 g) were killed by cervical dislocation. The ileum was removed at a point 20 cm from the caecum and flushed with and placed in modified K–H buffer of following composition: 118 mM NaCl, 5.9 mM KCl, 1.2 mM CaCl2, 1.2 mM MgSO4, 1 mM Na2HPO4, 25 mM NaHCO3 and 10 mM D-glucose. Ileum segments (2.5–3 cm) were suspended in 20 ml organ baths containing K–H buffer maintained at 37°C and gassed with 95% O2/5% CO2. Contractile activity under stimulation (rectangular pulses of 15 V, 0.5 ms, and 0.1 Hz) was recorded using isometric transducers (Grass FTO3). […] Mepyramine ([…]) and famotidine ([…]) (Sigma-Aldrich, St. Louis, MO) were added to the K–H buffer to block postsynaptic H1 and presynaptic H2 receptors, respectively.

T1 sequence (Q9QYN8 whole entry): as the sequence (P58406 whole entry) above, with A15T, T286A, G290A, H387R, V389I counted along it

## c1nc(CC2CCNCC2)c[nH]1 [immepip, 4-(1H-imidazol-4-ylmethyl)piperidine]
[1]
  pKi: 7.66

## CNCCc1cnc[nH]1 [[^3H]N-α-methylhistamine, reference compound]
[2]
  Kd: 830 pM

## CNCCc1c[nH]cn1 [[^3H]N-α-methylhistamine, [3H]N-alpha-methylhistamine]
[3]
  Kd: 710 pM

## N=C(N)SCCc1c[nH]cn1 [imetit, S-[2-(4-imidazolyl)ethyl]isothiourea, reference compound]
[4]
  Ki: 900 ± 60 pM
[5]
  loss in the expression of the receptors on the cell surface (internalization): 18–20%

## S=C(NC1CCCCC1)N1CCC(c2cnc[nH]2)CC1 [thioperamide]
[6]
  effect on ERK1/2 phosphorylation induced by 50 µM ZEL-H16: completely abolished
[7]
  effect on ERK phosphorylation induced by 50 µM ZEL-H16 at 20 min: abolish most of the stimulatory effects

## NCCc1c[nH]cn1 [histamine, reference compound]
[8]
  time for internalized H3R to recycle to the cell surface after agonist removal: ≤ 1 h
[9]; electrically induced twitch, mepyramine and famotidine present
  efficacy of inhibition of the contractions of the guinea pig ileum: 54.52±0.99%
[9]; inhibition of electrically induced twitch, read-out: pD 2 (converted)
  EC50: 95500 pM
[5]
  loss in the expression of the receptors on the cell surface (internalization): 18–20%
